The values below come from patent US8759073B2, “Method for effectively controlling harmful organisms in large-scale culture of microalgae” (ENN Science & Technology Development Co., Ltd., priority 2009, dated 2014).

The test system of one series is Amoeba. The series can be described thus: Control of Amoeba contamination in microalgae culture, microscope examination. Format: cell-based, Amoeba sp. The text has this:
If the contaminated alga liquid is identified as alkali tolerant contamination, CO2 is aerated into the culture system of microalgae, so as to lower the pH value. At this time, the appearance of the algae cells and the harmful organisms are observed under a microscope. When the harmful organisms has been inhibited or inactivated, air is sufficiently aerated into the culture system and the pH value is adjusted back to the optimal pH suitable for microalgae growth. In an embodiment, the concentration of CO2 reaches saturation. In an alternative embodiment, the pH value can be adjusted back to the optimal pH suitable for microalgae growth with ammonia (one of the nitrogen sources used by microalgae). In an embodiment, the pH value can be adjusted back to the optimal pH suitable for microalgae growth with NaOH. In an embodiment, the used NaOH is 1M NaOH. In an embodiment, the pH is 5.6-5.7 in the alga culture system with a saturated concentration of CO2. In an alternative embodiment, if the algae are marine algae (such as in the case of Dunaliella tertiolecta), the aerated CO2 can maintain pH within the range of 6.0-6.5. After that, if the harmful organisms have been determined to be in control (for instance, most of Amoeba have become spherical), salinity is reduced by diluting with water (salinity is the ratio between the mass of the solute in seawater and the mass of seawater), followed by sufficient aeration with air, so as to adjust the pH and salinity to a condition suitable for alga growth. In an embodiment (for example, in the case that the alga is Nannochloris sp. or Dunaliella tertiolecta), CO2 can be aerated intermittently. In an embodiment, CO2 can be aerated at an interval of two hours. In an embodiment, the culture system is maintained at pH 6.0-6.5 for 2 days, followed by decreasing 1% of the salinity by adding water. In an embodiment, the culture system is maintained with saturated CO2 for about 28 hours. In an embodiment, CO2 is kept at saturation for about 27 hours in the culture system. In an embodiment, saturated CO2 is aerated continuously into the culture system for 36 hours. In an embodiment, CO2 is aerated periodically at an interval of 2 hours (pH is in the range of 5.0-8.5), for 2 days.
Microscope examination is always used as one of the bases for determining the growth status in the process of microalgae culture. As a result, all the early-stage contamination is found by microscope examination. For example, when the alga liquid without microscope examination is contaminated, it's color generally changes into e.g. brown or brown spots are observed on the wall of the reactor, etc. However the contamination has become severer once the color change is observed directly.
(§1) Salinity was reduced by 1% (e.g. from 9% to 8%) by way of dilution with water. Then air was sufficiently aerated.
(§2) Chlorella sp. […] Modified SM medium (see Table 2) was used. […] Then air was sufficiently aerated.
Chlorococcum sp. […] Modified BG11 medium (see Table 3) was used. […] CO2 was aerated continuously.
(§3) Chlorococcum sp. […] Modified BG11 medium (see Table 3) was used. […] Then air was sufficiently aerated. Eighteen hours later, Chlorococcum sp. could resume to grow.
(§4) Nannochloris sp. […] Modified BG11 medium (see Table 4) was used. […] Then CO2 was aerated periodically at an interval of 2 hours (pH ranged within 5.0-8.5).
(§5) Modified SM (see Table 2) was used. […] Then air was sufficiently aerated. Twenty-four hours later, the algae could resume to grow.
(§6) Then air was sufficiently aerated. Eighteen hours later, Chlorococcum sp. could resume to grow.
(§7) Modified SM (see Table 2) was used. […] One hour later, CO2 was aerated to saturation for 23 hour continuously (about pH 5.8). […] Then air was sufficiently aerated. Twenty-four hours later, the algae could resume to grow.

A further series concerns ciliate. Description: Control of ciliate contamination (mixed contamination) in microalgae culture, microscope examination. Format: cell-based.
Source text: In an embodiment, the pH of the culture system is first raised by alkalis, followed by aeration of CO2 to saturation. When the harmful organisms are observed as being in control under a microscope (for example, these harmful organisms such as Oxyrrhis, Amoeba and ciliate cannot be observed under a microscope or the activity of the harmful organisms has been reduced), the pH value is then adjusted back to the optimal pH suitable for microalgae growth by sufficiently aerating air. In an embodiment, an interval of 1 hour exists between the step of raising pH of the culture system with an alkali and the step of aerating CO2 to saturation. In an embodiment, said alkali can be ammonia. In an embodiment, said alkali can be 1M NaOH. […] In an embodiment, the pH of the culture system is adjusted to 11.5-12.0, 11.0-11.8 or 8.0-11.0 with 1M NaOH or 1M ammonia. In an embodiment, the pH of the culture system is adjusted to 11.5-12.0, 11.0-11.8 or 8.0-11.0 and maintained for 1 hours, followed by aeration of CO2 to saturation for about 24 hours. In an embodiment, the pH of the culture system is adjusted to 11.5-12.0, 11.0-11.8 or 8.0-11.0 and maintained for 1 hours, followed by aeration of CO2 to saturation for about 23 hours.
as §2, §3, §5, §6, §7

Another series has as its system diatom. Description: Control of diatom contamination in culture of Chlorococcum sp., microscope examination. Format: cell-based. The note with it: Example 8. The text has this: Chlorococcum sp. […] Modified BG11 medium (see Table 3) was used. […] Then air was sufficiently aerated.
The test system of another series is Dunaliella tertiolecta. Description: Growth of cultured algae after treatment, 120 L bubbling reactor. The format is cell-based. The conditions noted are these: Example 1; CO2 intermittently pH 6.0-6.5 for 2 days, salinity decreased by 1%.
Source text: as §1

A further series relates to Nannochloris sp. Description: Growth of cultured algae after treatment, 1.5 m^3 glass plate reactor. The conditions noted are these: Example 9; CO2 periodically at an interval of 2 hours, 2 days. The format is cell-based. As for the experimental part: as §4
The next series deals with Spirulina maxima. Description: Growth of cultured algae after treatment, 500 L raceway pond. The format is cell-based. The note with it: Example 15; 1M ammonia pH 10.0 1 h, saturated CO2 23 h, then air. Here is the method: as §5, §7
Setting [1] is: Example 4, after 1M NaOH pH 11.0-11.8 1 h, CO2 to saturation (pH 5.6) 24 hours.
The mark [2] stands for this setting: Example 7, after 1M NaOH pH 11.5-12.0 1 h, CO2 to saturation (about pH 5.6) 24 hour.
[3] abbreviates: Example 12, after 1M ammonia pH 9.0 1 h, CO2 to saturation (pH 5.6) 24 hours.
Setting [4] is: Example 14, after 1M ammonia pH 9.0 1 h, CO2 to saturation (about pH 5.6) 24 hour.

“Also recorded” adds a separate entry of the source.

Consider `O=C=O` [CO2, carbon dioxide], for which the “Amoeba, result of microscope examination” value in the series with Amoeba (Example 1, Dunaliella tertiolecta culture, CO2 aerated intermittently, pH 6.0-6.5, two days) was “most Amoebae were found to become spherical”; in the series with Amoeba (Example 1, after CO2 pH 6.0-6.5 two days, salinity reduced by 1%, air aerated, twenty-four hours later) it was “almost no Amoeba”; in the series on Amoeba (Example 3, Chlorella sp. culture, CO2 aerated continuously, saturated, pH 5.6-5.7, one hour) it was “most Amoebae were found to become spherical and lose activity”; in the series with Amoeba (Example 3, saturated CO2, twenty-seven hours after the first hour (about 28 hours)), “almost no intact Amoeba was observed; also recorded: almost no Amoeba was found”; with Amoeba (setting [1]), “no Amoeba”; with Amoeba (Example 5, Chlorococcum sp. culture, CO2 saturated, pH about 5.6-5.7, one hour), “most Amoeba turned into spherical, were inactivated and could not change shape or move”. Moreover, the “Amoeba, result of microscope examination” value is recorded as “almost no intact Amoeba were observed” with Amoeba (Example 5, saturated CO2, twenty-seven hours later); “no Amoeba” in the series on Amoeba (setting [2]); “no Amoeba was observed; also recorded: essentially in control” in the series with Amoeba (Example 9, Nannochloris sp. culture, CO2 aerated periodically at an interval of 2 hours (pH 5.0-8.5), two days); “no Amoeba” with Amoeba (Example 10, Spirulina maxima culture, after 1M NaOH pH 11.5-12.0 1 h, CO2 to saturation (about pH 5.8) 23 hour); “no Amoeba” in the series on Amoeba (setting [3]); “no Amoeba” in the series with Amoeba (setting [4]). Besides, in the series with Amoeba (Example 15, Spirulina maxima culture, after 1M ammonia pH 10.0 1 h, CO2 to saturation (about pH 5.8) 23 hour), the “Amoeba, result of microscope examination” value is “no Amoeba”. Further, the “ciliates, result of microscope examination” value was “a few inactive and immotile ciliates” in the series with ciliate (setting [1]); “a few inactive and immotile ciliates” in the series on ciliate (setting [2]); “a few inactive and immotile ciliates” in the series with ciliate (Example 10, after 1M NaOH pH 11.5-12.0 1 h, CO2 to saturation (about pH 5.8) 23 hour); “a few inactive and immotile ciliates” in the series on ciliate (setting [3]); “a few inactive and immotile ciliates” with ciliate (setting [4]); “a few inactive and immotile ciliates” in the series with ciliate (Example 15, after 1M ammonia pH 10.0 1 h, CO2 to saturation (about pH 5.8) 23 hour). Also, the “diatom, result of microscope examination” value in the series on diatom (CO2 aerated continuously to saturation (about pH 5.6), thirty-six hours) was “some diatom lost intracellular pigment and only empty shells were left”. Moreover, the “residual contaminating diatom after air aeration” value in the series on diatom (saturated CO2 36 hours, then air sufficiently aerated) is “reduced activity, grew slowly, and would not become dominant algae; also recorded: grew slowly”. Besides, the “impact on the growth of algae” value in the series on Dunaliella tertiolecta is “not affected essentially; also recorded: little impact on the growth of algae”. In addition, the “growth rate of the algae” value in the series with Nannochloris sp. is recorded as “rarely affected; also recorded: not affected”. Further, the “time until algae resumed to grow after air aeration” value in the series with Spirulina maxima is “Twenty-four”.
